The target of one experiment is T1, human GPR139 (Homo sapiens, UniProt Q6DWJ6).
T1 construct: expressed in transfected cells; host or cells: CHO-TREx (Life Technologies) cells, expression induced with doxycycline
T1 sequence (Q6DWJ6 1-353): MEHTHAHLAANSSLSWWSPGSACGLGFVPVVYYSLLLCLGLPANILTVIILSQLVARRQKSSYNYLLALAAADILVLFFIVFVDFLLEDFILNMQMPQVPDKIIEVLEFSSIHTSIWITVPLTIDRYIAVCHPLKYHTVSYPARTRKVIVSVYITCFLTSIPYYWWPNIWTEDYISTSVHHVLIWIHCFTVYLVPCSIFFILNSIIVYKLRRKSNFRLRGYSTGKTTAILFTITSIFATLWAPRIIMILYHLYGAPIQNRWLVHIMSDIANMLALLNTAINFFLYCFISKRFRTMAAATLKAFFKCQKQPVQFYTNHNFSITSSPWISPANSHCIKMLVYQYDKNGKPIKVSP
Kind of experiment: Inhibition rate of the amount of IP1 in GPR139-expressed CHO cells (inverse agonist assay, Test Example 2). The format is cell-based. The settings on record: CHO, relative value, inhibition rate of Example Compound 2 in Test Example 1 defined as 100%. In a few lines: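 CHO-TREx cells with doxycycline-inducible human GPR139 (2 μg/mL, 17 h) were incubated with compound at 2000 cells/well for 40 min at 37° C. IP1 quantified by HTRF (665/615 nm ratio ×10000); inhibition rate expressed relative to a reference compound defined as […].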
With `CCn1cc(Cn2ccn(-c3nc(N4CCOC(C)(C)C4)cc(C(F)(F)F)c3F)c2=O)cn1` [Example 112, 1-[6-(2,2-dimethylmorpholin-4-yl)-3-fluoro-4-(trifluoromethyl)pyridin-2-yl]-3-[(1-ethyl-1H-pyrazol-4-yl)methyl]-1,3-dihydro-2H-imidazol-2-one], the inhibition at 30 µM is 100%.
The same measure, in the same setting: the result for `CCn1cc(Cn2c(C)c(C)n(-c3nc(N4CCO[C@H](C)C4)cc(C(F)(F)F)c3F)c2=O)cn1` [Example 59, 1-[(1-ethyl-1H-pyrazol-4-yl)methyl]-3-{3-fluoro-6-[(2R)-2-methylmorpholin-4-yl]-4-(trifluoromethyl)pyridin-2-yl}-4,5-dimethyl-1,3-dihydro-2H-imidazol-2-one] reads 102%; that for `CCc1cn(Cc2cnn(CC)c2)c(=O)n1-c1cc(C(F)(F)F)cc(N2CCO[C@H](C)C2)n1` [Example 157, 4-ethyl-1-[(1-ethyl-1H-pyrazol-4-yl)methyl]-3-{6-[(2R)-2-methylmorpholin-4-yl]-4-(trifluoromethyl)pyridin-2-yl}-1,3-dihydro-2H-imidazol-2-one], 101%.
Still for that read-out and setting: the result for `CCn1cc(Cn2c(C)cn(-c3cc(N4CCO[C@H](C)C4)cc(C(F)(F)F)c3Cl)c2=O)cn1` [Example 57, 1-{2-chloro-5-[(2R)-2-methylmorpholin-4-yl]-3-(trifluoromethyl)phenyl}-3-[(1-ethyl-1H-pyrazol-4-yl)methyl]-4-methyl-1,3-dihydro-2H-imidazol-2-one] reads 101%; that for `CCn1cc(C(C)n2ccn(-c3cc(N4CCO[C@H](C)C4)cc(C(F)(F)F)c3F)c2=O)cn1` (stereo partly drawn) [Example 9, 1-[1-(1-ethyl-1H-pyrazol-4-yl)ethyl]-3-{2-fluoro-5-[(2R)-2-methylmorpholin-4-yl]-3-(trifluoromethyl)phenyl}-1,3-dihydro-2H-imidazol-2-one], 102%.
Same read-out and setting: the same measure for `CCn1cc(Cn2ccn(-c3cc(N4CCO[C@H](C)C4)cc(Cl)c3F)c2=O)cn1` [Example 32, 1-{3-chloro-2-fluoro-5-[(2R)-2-methylmorpholin-4-yl]phenyl}-3-[(1-ethyl-1H-pyrazol-4-yl)methyl]-1,3-dihydro-2H-imidazol-2-one]: 98%.
Turning to `CCn1cc(Cn2ccn(-c3cc(N4CCOC(C)(C)C4)cc(C(F)(F)F)c3F)c2=O)cn1` [Example 12, 1-[5-(2,2-dimethylmorpholin-4-yl)-2-fluoro-3-(trifluoromethyl)phenyl]-3-[(1-ethyl-1H-pyrazol-4-yl)methyl]-1,3-dihydro-2H-imidazol-2-one], the inhibition at 30 µM was 98%.
On the same count and under the same terms, the same measure for `CCn1cc(Cn2ccn(-c3cc(OCC4CC(F)(F)C4)cc(C(F)F)c3Cl)c2=O)cn1` [Example 69, 1-{2-chloro-5-[(3,3-difluorocyclobutyl)methoxy]-3-(difluoromethyl)phenyl}-3-[(1-ethyl-1H-pyrazol-4-yl)methyl]-1,3-dihydro-2H-imidazol-2-one]: 95%; for `CCn1cc(Cn2cc(C)n(-c3nc(N4CCOC(C)(C)C4)cc(C(F)(F)F)n3)c2=O)cn1` [Example 134, 3-[4-(2,2-Dimethylmorpholine-4-yl)-6-(trifluoromethyl)pyrimidine-2-yl]-1-[(1-ethyl-H-pyrazole-4-yl)methyl]-4-methyl-1,3-dihydro-2H-imidazole-2-one]: 98%; for `CCn1cc(Cn2cc(C)n(-c3cc(-n4cnc(C)c4)cc(C(F)(F)F)c3)c2=O)cn1` [Example 21, 1-[(1-ethyl-1H-pyrazol-4-yl)methyl]-4-methyl-3-[3-(4-methyl-1H-imidazol-1-yl)-5-(trifluoromethyl)phenyl]-1,3-dihydro-2H-imidazol-2-one]: 99%.
Same read-out and setting: the same measure for `CCn1cc(Cn2ccn(-c3nc(N4CCO[C@H](C)C4)cc(C(F)(F)F)c3C)c2=O)cn1` [Example 42, 1-[(1-ethyl-1H-pyrazol-4-yl)methyl]-3-{3-methyl-6-[(2R)-2-methylmorpholin-4-yl]-4-(trifluoromethyl)pyridin-2-yl}-1,3-dihydro-2H-imidazol-2-one]: 99%; for `CCn1cc(Cn2cnn(-c3cc(N4CCO[C@H](C)C4)cc(C(F)(F)F)c3F)c2=O)cn1` [Example 27, 4-[(1-ethyl-1H-pyrazol-4-yl)methyl]-2-{2-fluoro-5-[(2R)-2-methylmorpholin-4-yl]-3-(trifluoromethyl)phenyl}-2,4-dihydro-3H-1,2,4-triazol-3-one]: 99%.
On the same count and under the same terms, the same measure for `Cc1cn(Cc2cnn(C(C)C)c2)c(=O)n1-c1cc(C(F)(F)F)cc(N2CCO[C@H](C)C2)n1` [Example 103, 4-Methy-3-{6-[(2R)-2-methylmorpholine-4-yl]-4-(trifluoromethyl)pyridine-2-yl}-1-{[1-(propane-2-yl)-1H-pyrazole-4-yl]methyl}-1,3-dihydro-2H-imidazole-2-one]: 103%.
As to `CCn1cc(Cn2cc(C)n(-c3cc(C(F)(F)F)cc(N(C)C4CCOCC4)n3)c2=O)cn1` [Example 86, 1-[(1-ethyl-1H-pyrazol-4-yl)methyl]-4-methyl-3-{6-[methyl(oxan-4-yl)amino]-4-(trifluoromethyl)pyridin-2-yl}-1,3-dihydro-2H-imidazol-2-one], the inhibition at 30 µM came to 101%.
On the same count and under the same terms, the same measure for `CCn1cc(Cn2ccn(-c3cc(N4CCCC(F)(F)C4)cc(C(F)(F)F)c3F)c2=O)cn1` [Example 37, 1-[5-(3,3-difluoropiperidin-1-yl)-2-fluoro-3-(trifluoromethyl)phenyl]-3-[(1-ethyl-1H-pyrazol-4-yl)methyl]-1,3-dihydro-2H-imidazol-2-one]: 99%; for `Cc1cn(Cc2cnn(C(C)C)c2)c(=O)n1-c1cc(C(F)(F)F)cc(OC[C@@H]2CCCO2)n1` [Example 148, 4-methyl-3-[6-{[(2S)-oxolan-2-yl]methoxy}-4-(trifluoromethyl)pyridin-2-yl]-1-{[1-(propan-2-yl)-1H-pyrazol-4-yl]methyl}-1,3-dihydro-2H-imidazol-2-one]: 101%; for `CCn1cc(Cn2c(C)cn(-c3cc(N(C)C4CCOCC4)cc(C(F)(F)F)c3Cl)c2=O)cn1` [Example 58, 1-{2-chloro-5-[methyl(oxan-4-yl)amino]-3-(trifluoromethyl)phenyl}-3-[(1-ethyl-1H-pyrazol-4-yl)methyl]-4-methyl-1,3-dihydro-2H-imidazol-2-one]: 98%.
Same read-out and setting: the same measure for `Cc1cn(Cc2cnn(C(C)C)c2)c(=O)n1-c1cc(C2CC2)cc(N2CCOC(C)(C)C2)n1` [Example 130, 3-[4-cyclopropyl-6-(2,2-dimethylmorpholin-4-yl)pyridin-2-yl]-4-methyl-1-{[1-(propan-2-yl)-1H-pyrazol-4-yl]methyl}-1,3-dihydro-2H-imidazol-2-one]: 100%; for `CCn1cc(Cn2c(C)nn(-c3cc(N4CCC(F)(F)CC4)cc(C(F)(F)F)c3C)c2=O)cn1` [Example 161, 2-[5-(4,4-difluoropiperidin-1-yl)-2-methyl-3-(trifluoromethyl)phenyl]-4-[(1-ethyl-1H-pyrazol-4-yl)methyl]-5-methyl-2,4-dihydro-3H-1,2,4-triazol-3-one]: 100%.
The same measure, in the same setting: the same measure for `CC(C)n1cc(Cn2ccn(-c3nc(N4CCOC(C)(C)C4)cc(C(F)(F)F)c3F)c2=O)cn1` [Example 132, 1-[6-(2,2-dimethylmorpholin-4-yl)-3-fluoro-4-(trifluoromethyl)pyridin-2-yl]-3-{[1-(propan-2-yl)-1H-pyrazol-4-yl]methyl}-1,3-dihydro-2H-imidazol-2-one]: 99%; for `CCn1cc(Cn2c(C)cn(-c3nc(N4CCO[C@H](C)C4)cc(C(F)(F)F)c3F)c2=O)cn1` [Example 30]: 99%; for `CCn1cc(Cn2ccn(-c3nc(N4CCO[C@H](C)C4)cc(C(F)(F)F)c3F)c2=O)cn1` [Example 26, 1-[(1-ethyl-1H-pyrazol-4-yl)methyl]-3-{3-fluoro-6-[(2R)-2-methylmorpholin-4-yl]-4-(trifluoromethyl)pyridin-2-yl}-1,3-dihydro-2H-imidazol-2-one]: 100%.
`CCn1cc(Cn2ccn(-c3cc(-c4ccc(F)cc4)cc(C4CC4(F)F)c3F)c2=O)cn1` (centres unmarked) [Example 131]: the inhibition at 30 µM stood at 96%.
Regarding `CCn1cc(Cn2ccn(-c3cc(-c4ccc(F)cc4)cc(C(F)(F)F)c3)c2=O)cn1` [Example 1, 1-[(1-Ethyl-1H-pyrazole-4-yl)methyl]-3-[4′-fluoro-5-(trifluoromethyl)[1,1′-biphenyl]-3-yl]-1,3-dihydro-2H-imidazole-2-one], the inhibition at 30 µM worked out at 99%.

Still in this experiment, the particulars now being: relative value, inhibition rate of Example Compound 2 in Test Example 1 defined as 100%, 30 µM.
As for `CCn1cc(Cn2cc(C)n(-c3cc(OCC4CC4(F)F)cc(C(F)(F)F)c3)c2=O)cn1` (centres unmarked) [Example 50, 3-{3-[(2,2-difluorocyclopropyl)methoxy]-5-(trifluoromethyl)phenyl}-1-[(1-ethyl-1H-pyrazol-4-yl)methyl]-4-methyl-1,3-dihydro-2H-imidazol-2-one], the “Inhibition Rate at 30 μM” value is listed as 102%.
On to `CCn1cc(Cn2cc(C)n(-c3cc(OCC4CC4(F)F)cc(C(F)(F)F)c3)c2=O)cn1` (centres unmarked) [Example 51, 3-{3-[(2,2-difluorocyclopropyl)methoxy]-5-(trifluoromethyl)phenyl}-1-[(1-ethyl-1H-pyrazol-4-yl)methyl]-4-methyl-1,3-dihydro-2H-imidazol-2-one], for which the “Inhibition Rate at 30 μM” value was determined as 102%.

The values are drawn from patent publication US12630534B2 (TAKEDA PHARMACEUTICAL COMPANY LIMITED, priority 2020, dated 2026).
